Source: ChEMBL document CHEMBL5230136, “A review: Biologically active 3,4-heterocycle-fused coumarins” (Eur J Med Chem, 2021)

Tests used:
[1] = tested on: HeLa; test: cells; details: Homo sapiens
Description: Cytotoxicity against human HeLa cells at 50 uM by MTT reduction assay

[2] = tested on: K562; test: cells; details: Homo sapiens
Description: Cytotoxicity against human K562 cells at 50 uM by MTT reduction assay

[3] = tested on: LS180; test: cells; details: Homo sapiens
Description: Cytotoxicity against human LS180 cells at 50 uM by MTT reduction assay

[4] = tested on: Staphylococcus aureus; test: Antibacterial activity against Staphylococcus aureus assessed as zone of inhibition at 100 ug/ml; type: functional; details: read-out: IZ
[5] = tested on: Bacillus subtilis; test: Antibacterial activity against Bacillus subtilis assessed as zone of inhibition at 100 ug/ml; type: functional; details: read-out: IZ
[6] = tested on: Escherichia coli; test: Antibacterial activity against Escherichia coli assessed as zone of inhibition at 100 ug/ml; type: functional; details: read-out: IZ
[7] = tested on: Salmonella typhimurium; test: Antibacterial activity against Salmonella typhimurium DT104 assessed as zone of inhibition at 100 ug/ml; type: functional, Salmonella enterica subsp. enterica serovar Typhimurium; details: Salmonella enterica, read-out: IZ
[8] = tested on: Staphylococcus aureus; test: Antibacterial activity against Staphylococcus aureus assessed as zone of inhibition at 20 mg/ml; type: functional; details: read-out: IZ
[9] = tested on: Bacillus cereus; test: Antibacterial activity against Bacillus cereus assessed as zone of inhibition at 20 mg/ml; type: functional; details: read-out: IZ
[10] = tested on: Escherichia coli; test: Antibacterial activity against Escherichia coli assessed as zone of inhibition at 20 mg/ml; type: functional; details: read-out: IZ
[11] = tested on: Pseudomonas aeruginosa; test: Antibacterial activity against Pseudomonas aeruginosa assessed as zone of inhibition at 20 mg/ml; type: functional; details: read-out: IZ
[12] = tested on: Serratia marcescens; test: Antibacterial activity against Serratia marcescens assessed as zone of inhibition at 20 mg/ml; type: functional; details: read-out: IZ
[13] = tested on: Micrococcus luteus; test: Antibacterial activity against Micrococcus luteus assessed as zone of inhibition at 20 mg/ml; type: functional; details: read-out: IZ
[14] = tested on: Candida albicans; test: Antifungal activity against Candida albicans assessed as zone of inhibition at 20 mg/ml; type: functional; details: read-out: IZ
[15] = tested on: Trichophyton rubrum; test: Antifungal activity against Trichophyton rubrum assessed as zone of inhibition at 20 mg/ml; type: functional; details: read-out: IZ
[16] = tested on: Aspergillus flavus; test: Antifungal activity against Aspergillus flavus assessed as zone of inhibition at 20 mg/ml; type: functional; details: read-out: IZ
[17] = tested on: Fusarium oxysporum; test: Antifungal activity against Fusarium oxysporum assessed as zone of inhibition at 20 mg/ml; type: functional; details: read-out: IZ
[18] = tested on: Scopulariopsis; test: Antifungal activity against Scopulariopsis assessed as zone of inhibition at 20 mg/ml; type: functional; details: read-out: IZ
[19] = tested on: Geotrichum candidum; test: Antifungal activity against Geotrichum candidum assessed as zone of inhibition at 20 mg/ml; type: functional; details: read-out: IZ
[20] = tested on: MCF7; test: Cytotoxicity against human MCF7 cells […] by MTT reduction assay; type: functional, cell-based

IC50 [1] [µM]	IC50 [2] [µM]	IC50 [3] [µM]	SMILES	zone of inhibition at 100 µg/mL [4] [mm]	zone of inhibition at 100 µg/mL [5] [mm]	zone of inhibition at 100 µg/mL [6] [mm]	zone of inhibition at 100 µg/mL [7] [mm]	also measured
> 100	57.4	> 100	Cc1cccc(-c2c3c(nc4c2c(=O)oc2ccccc24)CCCC3=O)c1					
			Cc1ccc2c(c1)oc(=O)c1c(-c3cn(-c4ccccc4)nc3-c3ccccc3)cc(-c3c(O)cc(C)c(Cl)c3Cl)nc12	7	14	8	10	
			CCOC(=O)c1sc2c(c1NC(=O)CCl)c(=O)oc1ccccc12					zone of inhibition at 20000 µg/mL [8]: 8 mm; zone of inhibition at 20000 µg/mL [9]: 0 mm; zone of inhibition at 20000 µg/mL [10]: 0 mm; zone of inhibition at 20000 µg/mL [11]: 0 mm; zone of inhibition at 20000 µg/mL [12]: 0 mm; zone of inhibition at 20000 µg/mL [13]: 0 mm; zone of inhibition at 20000 µg/mL [14]: 10 mm; zone of inhibition at 20000 µg/mL [15]: 0 mm; zone of inhibition at 20000 µg/mL [16]: 0 mm; zone of inhibition at 20000 µg/mL [17]: 0 mm; zone of inhibition at 20000 µg/mL [18]: 0 mm; zone of inhibition at 20000 µg/mL [19]: 0 mm
			Cc1ccc2c(c1)oc(=O)c1c(-c3cn(-c4ccccc4)nc3-c3ccccc3)cc(-c3c(O)c(Cl)cc(I)c3O)nc12	19	22	20	16	
37.7	37.5	> 100	O=C1CCCc2nc3c(c(-c4ccc(Cl)cc4)c21)c(=O)oc1ccccc13					IC50 [20]: 41.8 µM
> 100	> 100	> 100	COc1ccccc1-c1c2c(nc3c1c(=O)oc1ccccc13)CCCC2=O					IC50 [20]: > 100 µM
			Cc1ccc2c(c1)oc(=O)c1c(-c3cn(-c4ccccc4)nc3-c3ccccc3)cc(-c3c(O)c(I)c(C)c(Cl)c3Cl)nc12	15	12	9	12	
			CC1(C)S[C@@H]2[C@H](NC(=O)Cc3ccccc3)C(=O)N2[C@H]1C(=O)O [PENICILLIN G]	24	24	22	22	
			CCOC(=O)c1sc2c(c1NC(=O)CNc1ccccc1)c(=O)oc1ccccc12					zone of inhibition at 20000 µg/mL [8]: 0 mm; zone of inhibition at 20000 µg/mL [9]: 0 mm; zone of inhibition at 20000 µg/mL [10]: 0 mm; zone of inhibition at 20000 µg/mL [11]: 0 mm; zone of inhibition at 20000 µg/mL [12]: 0 mm; zone of inhibition at 20000 µg/mL [13]: 0 mm; zone of inhibition at 20000 µg/mL [14]: 13 mm; zone of inhibition at 20000 µg/mL [15]: 10 mm; zone of inhibition at 20000 µg/mL [16]: 12 mm; zone of inhibition at 20000 µg/mL [17]: 0 mm; zone of inhibition at 20000 µg/mL [18]: 10 mm; zone of inhibition at 20000 µg/mL [19]: 11 mm
			Cc1ccc2c(c1)oc(=O)c1c(-c3cn(-c4ccccc4)nc3-c3ccccc3)cc(-c3c(O)ccc(Cl)c3O)nc12	19	18	21	20	
			NNC(=O)c1sc2c(c1N)c(=O)oc1ccccc12					zone of inhibition at 20000 µg/mL [8]: 10 mm; zone of inhibition at 20000 µg/mL [9]: 0 mm; zone of inhibition at 20000 µg/mL [10]: 0 mm; zone of inhibition at 20000 µg/mL [11]: 10 mm; zone of inhibition at 20000 µg/mL [12]: 11 mm; zone of inhibition at 20000 µg/mL [13]: 0 mm; zone of inhibition at 20000 µg/mL [14]: 14 mm; zone of inhibition at 20000 µg/mL [15]: 0 mm; zone of inhibition at 20000 µg/mL [16]: 10 mm; zone of inhibition at 20000 µg/mL [17]: 16 mm; zone of inhibition at 20000 µg/mL [18]: 13 mm; zone of inhibition at 20000 µg/mL [19]: 13 mm
			Cc1ccc2c(c1)oc(=O)c1c(-c3cn(-c4ccccc4)nc3-c3ccccc3)cc(-c3c(O)cc(O)cc3Cl)nc12	10	14	19	12	
> 100	50.7	> 100	O=C1CCCc2nc3c(c(-c4cccc(Cl)c4)c21)c(=O)oc1ccccc13					IC50 [20]: 71.7 µM
			Cc1ccc2c(c1)oc(=O)c1c(-c3cn(-c4ccccc4)nc3-c3ccccc3)cc(-c3c(O)c(Cl)c(O)c(Cl)c3Cl)nc12	18	22	22	20	zone of inhibition at 20000 µg/mL [8]: 22 mm; zone of inhibition at 20000 µg/mL [10]: 22 mm
> 100	> 100	> 100	O=C1CCCc2nc3c(c(-c4ccccc4Cl)c21)c(=O)oc1ccccc13					IC50 [20]: > 100 µM
			Cc1ccc2c(c1)oc(=O)c1c(-c3cn(-c4ccccc4)nc3-c3ccccc3)cc(-c3c(O)c(C)cc(I)c3O)nc12	15	18	18	12	
